From patent publication US5840911A, “Imidazole derivatives, their preparation and their use as S-adenosylmethionine decarboxylase (=SAMDC) inhibitors” (Novartis AG, priority 1995, dated 1998)
Where a name gives a salt, the structure may show the parent alone. Read-outs that look alike come from different tables or passages of the source.

Tests used:
[1] = Maximum tolerable dose (MTD); design: species or system mice; details: mouse, in vivo, read-out: maximum tolerated dose
[2] = biological target: T1, S-adenosylmethionine decarboxylase (SAMDC) (Rattus norvegicus, UniProt P17708); experiment: Inhibition of S-adenosylmethionine decarboxylase (SAMDC); format: biochemical; details: read-out: IC50, inhibition of the enzyme SAMDC
T1 sequence (P17708 68-333 limits assumed): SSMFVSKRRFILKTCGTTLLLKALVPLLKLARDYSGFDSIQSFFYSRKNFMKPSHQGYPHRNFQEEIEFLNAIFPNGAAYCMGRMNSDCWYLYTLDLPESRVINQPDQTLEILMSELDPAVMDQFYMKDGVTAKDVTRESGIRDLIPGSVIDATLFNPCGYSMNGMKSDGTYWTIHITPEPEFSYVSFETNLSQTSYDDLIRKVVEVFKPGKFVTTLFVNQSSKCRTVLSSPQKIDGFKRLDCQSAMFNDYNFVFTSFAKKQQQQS
T1 sequence (P17708 1-67 limits assumed): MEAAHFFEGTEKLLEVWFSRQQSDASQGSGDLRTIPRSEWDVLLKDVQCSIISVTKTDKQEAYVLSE

[3] = test system: human T24 bladder cell carcinomas; experiment: Inhibition of the growth of T24 bladder carcinoma cells in vivo (nude mouse); design: species or system human; BALB/c nude mice; details: for T/C on i.p. administration / T/C on p.o. administration: average for 6 animals
Protocol: W. Porter (see Cancer Res. 54, 3210-3217 (1994)). Briefly, the procedure is as follows: To determine the maximum tolerable dose (MTD), the compounds according to the invention (for example dissolved in distilled water/0.9% NaCl) are injected i.p. into three mice per group. The dose is increased until the first animals die within a period of 10 days. To determine the anti-tumor activity, for example, small pieces of human T-24 bladder carcinoma cells (ATCC HTB 4) are cultured and transplanted as xenogenic transplants ("xenografts") into female BALB/c nude mice (Bomholtgarden, Copenhagen, Denmark). The anti-tumor treatment using compounds of formula I is started after at least three successive transplants. Tumor fragments weighing approximately 25 mg are transplanted into the left flank of the mouse (n=6 per group). Treatment is started as soon as the tumors have an average tumor volume of from 150 to 200 mm^3. The growth of the tumors is determined twice weekly by measuring mutually perpendicular tumor diameters. The tumor volumes are determined in the manner described by U. Regenass, H. Mett, J. Stanek, M. Muller, D. Kramer and C. W. Porter (see Cancer Res. 54 3210-3217 (1994)) and are given as relative tumor size (i.e. increase in tumor volume relative to the tumor volume at the beginning of treatment) in T/C % (percent treated/control). The test compounds are dissolved in distilled water and diluted with 3 volumes of 0.9% (w/v) NaCl in water.
Using the method mentioned hereinbefore (see also Regenass et al., Cancer Res. 54, 3210-3217 ([…])), the compound of Example 2 of the present Application is administered in accordance with the following treatment scheme to BALB/c nude mice with transplanted human T24 bladder cell carcinomas: The compound is administered p.o. (50, 25 and 12.5 mg/kg) or i.p. (12.5, 6.25 and 3.13 mg/kg). The compound is dissolved in distilled water and diluted with 3 volumes of 0.9% NaCl (w/v) in water.

[4] = test system: human T24 bladder carcinoma cells; experiment: Inhibition of the growth of human T24 bladder carcinoma cells; format: cell-based; details: 120 h, 5 days incubation, concentration at half the maximum inhibition
Protocol: The carcinoma cells (1000-1500; ATCC HB 4) are transferred to 96-well microtitre plates and are incubated overnight under the said conditions. The test compound is added in serial dilutions on day 1. The plates are incubated under the said conditions for 5 days. During that period, control cultures undergo at least 4 cell divisions. After the incubation, the cells are fixed with 3.3% (weight/volume=w/v) aqueous glutaraldehyde solution, washed with water and stained with 0.05% (w/v) aqueous methylene blue solution. After washing, the dye is eluted with 3% (w/v) aqueous hydrochloric acid. The optical density (OD) per well, which is directly proportional to the number of cells, is then measured by means of a photometer (Titertek multiskan) at 665 nm. The IC50 values are calculated by means of a computer system using the formula [formula] The IC50 value is defined as the concentration of active ingredient at which the number of cells per well at the end of the incubation period is only 50% of the number of cells in the control cultures. The inhibition of the growth of human T24 bladder carcinoma cells is measured using the method mentioned hereinbefore. The following IC50 values (concentration of the test compound at half the maximum inhibition) are determined using the following Examples: […]

| SMILES | IC50 [2] | IC50 [4] | other results |
| --- | --- | --- | --- |
| N=C(N)c1cccc2c1CCC2=Nn1cc(-c2ccccc2)nc1N [Example 2, 1-[4-(Amidino)-2,3-dihydro-1H-inden-1: -ylideneamino]-2-amino-4-phenyl-imidazole dihydrochloride] | 2 nM | 1160 nM | MTD at 240 h ([1]; ip): 125 mg/kg; MTD at 240 h ([1]; po): > 500 mg/kg; T/C on i.p. administration ([3]; 3.13 mg/kg): 34%; T/C on i.p. administration ([3]; 6.25 mg/kg): 22%; T/C on i.p. administration ([3]; 12.5 mg/kg): 16%; growth of T24 bladder carcinoma cells in vivo (in words) ([3]; oral and intraperitoneal administration): inhibits the growth of T24 bladder carcinoma cells; dose-dependence of tumor growth inhibition ([3]; p.o. and i.p.): dose-dependence of the action is observed; T/C on p.o. administration ([3]; 12.5 mg/kg): 68%; T/C on p.o. administration ([3]; 25 mg/kg): 47%; T/C on p.o. administration ([3]; 50 mg/kg): 31% |
| COc1ccc(-c2cn(N=C3CCc4c(C(=N)N)cccc43)c(N)n2)cc1 [Example 4, 1-[4-(Amidino)-2,3-dihydro-1H-inden-1-ylideneamino]-2-amino-4-(4-methoxvphenyl)-imidazole dihydrochloride] | 3.6 nM | 2000 nM |  |
| COc1ccccc1-c1cn(N=C2CCc3c(C(=N)N)cccc32)c(N)n1 [Example 6, 1-[4-(Armidino)-2,3-dihydro-1H-inden-1-ylideneamino]-2-amino-4-(2-methoxyphenyl)-imidazole dihydrochloride] | 8.4 nM | 1200 nM |  |
| COc1ccc(OC)c(-c2cn(N=C3CCc4c(C(=N)N)cccc43)c(N)n2)c1 [Example 8, 1-[4-(Amidino)-213-dihydro-1H-inden-1-ylideneamino]-2-amino-4-(2,5-di-methoxyphenyl)-imidazole dihydrochloride] | 8.9 nM | 1600 nM |  |
| COc1cccc(-c2cn(N=C3CCc4c(C(=N)N)cccc43)c(N)n2)c1 [Example 10, 1-[4-(Amidino)-2,3-dihydro-1 1H-inden-1-ylideneamino]-2-amino-4-(3-methoxyphenyl)-imidazole dihydrochloride] | 4.2 nM | 2600 nM |  |
| N=C(N)c1cccc2c1CCC2=Nn1cc(-c2ccc(Cl)cc2)nc1N [Example 12, 1-[4-(Amidino)-2,3-dihydro-1H-inden-1-ylideneamino]-2-amino-4-(4-chlorophenyl)-imidazole dihydrochloride] | 6.7 nM | 1550 nM |  |
| Cc1ccc(-c2cn(N=C3CCc4c(C(=N)N)cccc43)c(N)n2)cc1 [Example 14, 1-[4-(Amidino)-2,3-dihydro-1H-inden-1-ylideneamino]-2-amino-4-(4-tolyl)-imidazole dihydrochloride] | 3.4 nM | 1120 nM |  |
| N=C(N)c1cccc2c1CCC2=Nn1cc(-c2ccc(F)cc2)nc1N [Example 16, 1-[4-(Amidino)-2,3-dihydro-1H-inden-1-ylideneamino]-2-amino-4-(4-fluoro-phenyl)-imidazole dihydrochloride] | 4 nM | 2700 nM |  |
| CCc1cn(N=C2CCc3c(C(=N)N)cccc32)c(N)n1 [Example 18, 1-[4-(Amidino)-2,3-dihydro-1H-inden-1-ylideneamino]-2-amino-4-ethyl-imidazole dihydrochloride] | 6.1 nM | 1500 nM |  |
| N=C(N)c1cccc2c1CCC2=NN1CCN=C1N [Example 20, 1-[4-(Amidino)-2,3-dihydro-1H-inden-1-ylideneamino]-2-amino-4,5-di-hydro-imidazole dihydrochloride] | 3.4 nM | 280 nM |  |
| N=C(N)c1cccc2c1CCC2=Nn1cc(-c2ccc(-c3ccccc3)cc2)nc1N [Example 22, 1-[4-(Amidino)-2,3-dihydro-1H-inden-1-ylideneamino]-2-amino-4-(4-bi-phenylyl)-imidazole dihydrochloride] | 11 nM | 440 nM |  |
| N=C(N)c1cccc2c1CCC2=Nn1cc(-c2ccc3ccccc3c2)nc1N [Example 24, 1-[4-(Amidino)-2,3-dihydro-1H-inden-1-ylideneamino]-2-amino-4-(2-naphthyl)-imidazole dihydrochloride] | 7.5 nM | 2460 nM |  |
| N=C(N)c1cccc2c1CCC2=Nn1ccnc1N [Example 26, 1-[4-(Amidino)-2,3-dihydro-1H-inden-1-ylideneamino]-2-amino-imidazole dihydrochloride] |  | 2150 nM |  |
| CC(C)(C)c1ccc(-c2cn(N=C3CCc4c(C(=N)N)cccc43)c(N)n2)cc1 [Example 28, 1-[4-(Amidino)-2,3-dihydro-1H-inden-1-ylideneaminol-2-amino-4-(4-tert-butylphenyl)-imidazoledihydrochloride] | 5.4 nM | 230 nM |  |
